From ChEMBL document CHEMBL4837181 (Eur J Med Chem, 2020) come the findings set out here.

The nature of series [1]: Change in normalised Cmax in rat at 50 mg/kg, po measured upto 72 hrs by LC-MS/MS analysis. To be noted: in vivo. In kind it is ADME, organism-based.
The nature of series [2]: Change in normalised AUC (infinity) in rat at 50 mg/kg, po measured upto 72 hrs by LC-MS/MS analysis. In kind it is ADME, organism-based. To be noted: in vivo.
Series [3] can be described thus: Cmax in mouse at 250 mg/kg administered bid. To be noted: in vivo. In kind it is ADME, organism-based. Also noted: dose 250 mg/kg.
The nature of series [4]: AUC (0 to 24 hrs) in female cynomolgus monkey at 15 mg/kg, iv measured on day 1. In kind it is ADME, organism-based, Macaca fascicularis. Also noted: time < 24 hr, route intravenous, dose 15 mg/kg. The conditions noted are these: in vivo.
The nature of series [5]: Cmax in human at 2400 mg administered bid. Also on record: dose 2400 mg. To be noted: in vivo. It is filed as ADME.
Series [6] in a line: Volume of distribution in female cynomolgus monkey at 15 mg/kg, iv measured on day 1. In kind it is ADME, organism-based, Macaca fascicularis. To be noted: in vivo.
Series [7] in a line: Half life in male cynomolgus monkey at 15 mg/kg, iv measured on day 1. In kind it is ADME, organism-based, Macaca fascicularis. To be noted: in vivo.
A short description of series [8]: Clearance in female cynomolgus monkey at 75 mg/kg, po measured on day 1. It is filed as ADME, organism-based, Macaca fascicularis. The conditions noted are these: in vivo.
Series [9] can be described thus: Cmax in male cynomolgus monkey at 75 mg/kg, po measured on day 1. In kind it is ADME, organism-based, Macaca fascicularis. Also noted: route oral, dose 75 mg/kg. To be noted: in vivo.
Series [10] in a line: Half life in male cynomolgus monkey at 75 mg/kg, po measured on day 1. It is filed as ADME, organism-based, Macaca fascicularis. To be noted: in vivo.
The nature of series [11]: Cmax in mouse at 62 mg/kg administered bid. Also on record: dose 62 mg/kg. In kind it is ADME, organism-based. To be noted: in vivo.
Series [12] in a line: Apparent oral clearance in male cynomolgus monkey at 225 mg/kg, po measured on day 1. The conditions noted are these: in vivo. It is filed as ADME, organism-based, Macaca fascicularis.
A short description of series [13]: AUC (0 to 24 hrs) in female cynomolgus monkey at 225 mg/kg, po measured on day 1. In kind it is ADME, organism-based, Macaca fascicularis. Also noted: time < 24 hr, route oral, dose 225 mg/kg. To be noted: in vivo.
Series [14] can be described thus: AUC (0 to 12 hrs) in human up to 1200 mg administered bid. Also on record: time < 12 hr, dose <=1200. In kind it is ADME.
The target of series [15] is T1, Cytochrome P450 1A2 (Homo sapiens, UniProt P05177).
T1 sequence (P05177 whole entry): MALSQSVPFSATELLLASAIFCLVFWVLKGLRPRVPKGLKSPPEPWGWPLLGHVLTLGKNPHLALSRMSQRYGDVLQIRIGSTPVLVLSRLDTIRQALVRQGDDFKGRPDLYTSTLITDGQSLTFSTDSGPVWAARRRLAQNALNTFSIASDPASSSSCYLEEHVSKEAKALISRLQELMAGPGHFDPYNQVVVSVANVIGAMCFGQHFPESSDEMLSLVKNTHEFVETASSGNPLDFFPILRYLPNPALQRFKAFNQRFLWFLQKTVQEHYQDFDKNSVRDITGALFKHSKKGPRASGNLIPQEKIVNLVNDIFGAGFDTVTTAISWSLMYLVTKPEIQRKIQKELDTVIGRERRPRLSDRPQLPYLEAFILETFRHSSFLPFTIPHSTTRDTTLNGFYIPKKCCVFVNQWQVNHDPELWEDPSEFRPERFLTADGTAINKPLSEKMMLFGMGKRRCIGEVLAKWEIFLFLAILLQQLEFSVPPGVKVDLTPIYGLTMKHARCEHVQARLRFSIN
Nature of the series: Inhibition of CYP1A2 in human hepatocytes. In kind it is ADME, cell-based, Hepatocyte.

The nature of series [16]: Genotoxicity in rat. In kind it is toxicity.
A short description of series [17]: Drug metabolism in mouse assessed as indoximod formation by measuring indoximod Tmax at 20 to 900 mg/kg. The conditions noted are these: in vivo, dose 20-900 mg/kg. In kind it is ADME, organism-based.
The nature of series [18]: Dissociation constant, pKa of the compound. It is filed as physicochemical.
Series [19] in a line: Drug metabolism in rats assessed as ratio of indoximod to parent compound at 20 to 900 mg/kg, po administered as single dose. In kind it is ADME, organism-based. The conditions noted are these: rat, in vivo, dose 20-900 mg/kg.
The target in series [20] is OAT3 (Homo sapiens, UniProt Q8TCC7). Kind of series: Inhibition of OAT3 (unknown origin) expressed in HEK293 cells. In kind it is cell-based.
OAT3, sequence (Q8TCC7 whole entry, looked up): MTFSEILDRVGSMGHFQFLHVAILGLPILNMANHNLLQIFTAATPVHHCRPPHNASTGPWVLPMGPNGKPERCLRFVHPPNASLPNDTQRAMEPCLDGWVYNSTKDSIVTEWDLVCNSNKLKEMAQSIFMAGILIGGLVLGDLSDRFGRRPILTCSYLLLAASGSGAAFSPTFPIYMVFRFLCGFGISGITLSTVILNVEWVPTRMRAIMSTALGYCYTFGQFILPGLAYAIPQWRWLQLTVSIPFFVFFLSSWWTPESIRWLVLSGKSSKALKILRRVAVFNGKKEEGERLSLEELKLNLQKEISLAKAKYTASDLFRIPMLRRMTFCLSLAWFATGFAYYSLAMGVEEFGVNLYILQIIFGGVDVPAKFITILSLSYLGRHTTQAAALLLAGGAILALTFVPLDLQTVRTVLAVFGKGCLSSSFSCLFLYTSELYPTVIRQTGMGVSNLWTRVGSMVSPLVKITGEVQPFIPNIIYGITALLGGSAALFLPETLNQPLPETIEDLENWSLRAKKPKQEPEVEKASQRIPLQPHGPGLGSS
Series [21] is described as follows: Chemical stability of compound in PBS buffer assessed as compound remaining at pH 7.4 at 5 uM measured after 24 hrs by LC-MS/MS analysis. In kind it is physicochemical. To be noted: read-out: Stabilty.
The nature of series [22]: Drug metabolism in cynomolgus monkey assessed as indoximod formation by measuring indoximod Tmax at 75 to 375 mg/kg, po BID. It is filed as ADME, organism-based, Macaca fascicularis. To be noted: in vivo, dose 75-375 mg/kg.
Series [23] is described as follows: Chemical stability of compound in 0.1 N aqueous HCl buffer assessed as compound remaining at pH 1 at 5 uM measured after 1.5 hrs by LC-MS/MS analysis. In kind it is physicochemical. To be noted: pH 1, 1.5 h.
Series [24] deals with T2, Broad substrate specificity ATP-binding cassette transporter ABCG2 (Homo sapiens, UniProt Q9UNQ0).
T2 sequence (Q9UNQ0 whole entry): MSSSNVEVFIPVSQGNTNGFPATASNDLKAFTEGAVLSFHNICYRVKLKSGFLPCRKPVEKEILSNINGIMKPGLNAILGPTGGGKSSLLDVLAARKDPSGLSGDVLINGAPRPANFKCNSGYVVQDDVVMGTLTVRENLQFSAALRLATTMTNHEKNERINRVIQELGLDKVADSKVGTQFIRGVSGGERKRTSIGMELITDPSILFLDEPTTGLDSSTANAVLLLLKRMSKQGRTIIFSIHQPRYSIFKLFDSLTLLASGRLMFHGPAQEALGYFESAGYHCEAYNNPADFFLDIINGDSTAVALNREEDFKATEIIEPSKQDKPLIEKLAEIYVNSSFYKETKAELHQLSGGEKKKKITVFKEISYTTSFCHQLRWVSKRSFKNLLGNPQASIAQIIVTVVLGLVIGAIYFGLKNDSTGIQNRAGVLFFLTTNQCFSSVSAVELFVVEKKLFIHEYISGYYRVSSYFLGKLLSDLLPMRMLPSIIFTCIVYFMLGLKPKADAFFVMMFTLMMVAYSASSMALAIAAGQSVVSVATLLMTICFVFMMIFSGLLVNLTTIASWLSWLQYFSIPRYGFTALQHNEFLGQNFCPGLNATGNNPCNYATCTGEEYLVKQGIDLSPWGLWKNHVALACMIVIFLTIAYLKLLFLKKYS
Nature of the series: Inhibition of BCRP in human Caco-2 cells. In kind it is cell-based.

Series [25] can be described thus: Toxicity in rat assessed as labored breathing at 150 to 180 mg/kg, po. In kind it is organism-based. The conditions noted are these: in vivo, dose 150-180 mg/kg.
A short description of series [26]: Genotoxicity in monkey. In kind it is toxicity, Macaca mulatta. The conditions noted are these: rhesus monkey.
A short description of series [27]: Chemical stability of compound in PBS buffer assessed as compound remaining at pH 7.4 at 5 uM measured after 6 hrs by LC-MS/MS analysis. In kind it is physicochemical. The conditions noted are these: read-out: Stabilty.
The target in series [28] is Cytochrome P450 3A4 (Homo sapiens, UniProt P08684). Nature of the series: Induction of CYP3A4 in human hepatocytes. In kind it is ADME, cell-based, Hepatocyte.
Cytochrome P450 3A4, sequence (P08684 whole entry): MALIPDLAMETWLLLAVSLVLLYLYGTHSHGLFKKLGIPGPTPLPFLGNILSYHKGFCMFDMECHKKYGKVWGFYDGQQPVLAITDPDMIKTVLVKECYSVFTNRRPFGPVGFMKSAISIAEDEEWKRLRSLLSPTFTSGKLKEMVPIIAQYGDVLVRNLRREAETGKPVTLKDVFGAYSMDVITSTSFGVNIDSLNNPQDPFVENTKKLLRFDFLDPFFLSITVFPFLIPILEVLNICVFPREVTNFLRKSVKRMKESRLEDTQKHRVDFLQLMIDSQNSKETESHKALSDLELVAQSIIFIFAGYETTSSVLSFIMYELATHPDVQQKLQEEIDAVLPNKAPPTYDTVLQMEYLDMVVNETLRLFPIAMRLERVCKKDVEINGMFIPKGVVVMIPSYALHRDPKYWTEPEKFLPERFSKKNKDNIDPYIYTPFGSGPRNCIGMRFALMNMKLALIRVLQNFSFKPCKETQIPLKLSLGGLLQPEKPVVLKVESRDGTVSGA
Series [29] in a line: AUC (0 to 12 hrs) in rat po BID measured on day 28. To be noted: in vivo. Also on record: time < 12 hr, route oral. In kind it is ADME, organism-based.
Series [30] in a line: Protein binding in Beagle dog plasma. In kind it is ADME, cell-free, Canis lupus familiaris. The conditions noted are these: read-out: PPB.
Series [31] is described as follows: AUC (0 to 24 hrs) in male cynomolgus monkey at 75 mg/kg, po BID measured on day 8. It is filed as ADME, organism-based, Macaca fascicularis. Also noted: time < 24 hr, route oral, dose 75 mg/kg. The conditions noted are these: in vivo.
Series [32] can be described thus: Tmax in female cynomolgus monkey at 75 mg/kg, po measured on day 1. To be noted: in vivo. In kind it is ADME, organism-based, Macaca fascicularis.
A short description of series [33]: Drug metabolism in CD1 mouse hepatocytes assessed as unmetabolized compound at 10 uM incubated for 120 mins by UPLC-QTOF-PDA analysis. The conditions noted are these: read-out: Drug metabolism. It is filed as ADME, cell-based, Hepatocyte.
A short description of series [34]: Toxicity in po dosed female rat administered twice a day. In kind it is organism-based. To be noted: in vivo.
A short description of series [35]: Solubility in water. It is filed as physicochemical.
The nature of series [36]: Lipophilicity, logP of the compound. It is filed as physicochemical. To be noted: octanol/water.

As usually defined, the Cmax is the highest concentration seen after dosing. The AUC(0-t) is exposure summed from dosing to a finite time, without extrapolation to infinity. What is called Vd is the apparent volume that relates the amount in the body to the concentration in plasma or blood. The term half-life denotes the time in which the quantity being followed falls by half. As usually defined, the CL/F is the apparent clearance, not corrected for the fraction that reaches the circulation. Broadly, the AUC is the area under the concentration-time curve, a measure of exposure. The IC50 is the concentration that gives 50% inhibition. Broadly, the Tmax is the time from dosing to the highest level. As a reminder, the pKa is the negative logarithm of the acid dissociation constant. For orientation: solubility means the dissolved amount per volume that the medium holds. One may read the logP as a log measure of how a compound divides between an organic and an aqueous phase.

Take `Cn1cc(C[C@@H](N)C(=O)O)c2ccccc21` [INDOXIMOD]: the Activity in [1] and in series [2] was 0% throughout. The Cmax was 50 µM in series [3], 22 µM in series [5], 74.4 µM in series [9] and more than 16 µM in [11]. The figures for the AUC(0-t) at 24 h in series [4] and in [13] were 70.6 µM·h and 181 µM·h, respectively. Besides, the Vd in [6] was 0.9 L/kg. In addition, the figures for the half-life in [7] and in [10] were 2 h and 2.7 h, respectively. The CL/F in series [8] is 25.6 mL/min/kg; in series [12], 22.1 mL/min/kg. Further, the AUC at 12 h in series [14] stood at 83 µM·h.
For the compound `CCOC(=O)[C@@H](Cc1cn(C)c2ccccc12)NC(=O)[C@@H](N)CC(C)C.Cl`, the IC50 in series [15] and in series [20] was more than 50 µM each time. The Activity entry in series [16] was “Non-Toxic”; in series [25] it was “Toxic”; in [26], “Non-Toxic”; in series [28] it was “Not Active”. Also, the Tmax is 1 h in series [17], 1 h in series [22] and 2 h in series [32]. Also, the pKa in series [18] came to 7.76. In series [19], the Ratio was more than 39000. Further, the remaining at 24 h, 5 µM in series [21] was 48%. In [23], the Stabilty stood at 90%. For the same compound, in [24], the “inhibition (INH)” value is “Not Active”. Moreover, the remaining at 6 h, 5 µM in [27] was 92%. In series [29], the AUC at 12 h is 953 µM·h. Besides, in series [30], the fraction unbound came out at 0.5. Also, the exposure (AUC) at 24 h in series [31] was 177 µM·h. Besides, the remaining at 2 h, 10 µM in series [33] is 0.3%. The TD10 in [34] amounted to 150 mg/kg. The solubility in series [35] stood at 19.8 mg/mL. The same compound had a logP in series [36] of 2.6.
